Data on one substance can be found in patent US20060247156A1, “Use of neuropeptides for ligament, cartilage, and bone healing” (priority 2004, published 2006).

“Also recorded” adds a separate entry of the source.

This assay deals with ruptured MCL of a surgical sympathectomy (SS) rat. Kind of assay: Local neuropeptide delivery to ruptured MCL of surgical sympathectomy (SS) rats: mechanical testing, histomorphology. The settings on record: for failure force / ultimate stress / mechanical strength of healing MCL (in words): two weeks of healing; for mechanical strength of healing MCL (in words): local delivery. In kind it is in vivo. The text has this:
Surgical Procedure: Thirteen female Wistar rats (306 g to 339 g) were divided into two groups: surgical sympathectomy (SS) or sham control. All rats were anesthetized with isofluorane as described in Example 1. A transperitoneal approach was used. The lower abdomen was shaved and prepared for surgery. A skin incision approximately 25 mm long was made. Fascia and abdominal muscle were incised. Abdominal organs were displaced. With the aid of a dissecting microscope, fascia surrounding the deep muscle tissue was separated (with minimal disruption to the muscle tissue) to expose the post-ganglionic sympathetic nerves. The L1-4 nerves were isolated and transected (with removal of a 5 mm segment of the nerves) in the surgical sympathectomy group only. In both groups, the deep muscle tissue was returned to its initial position and abdominal organs were replaced. Abdominal muscles and skin were closed in two layers with a 3-0 or 4-0 continuous dexon suture. Rats from each group (n=4 SS; n=3 controls) then underwent a complete surgical rupture of the MCL to one knee. The contra-lateral knee underwent sham surgery. […] Two weeks post-surgery, rats were sacrificed using an overdose of pentobarbitone (150 mg/kg).
Local delivery of NPs and NP inhibitors is important to identify the specific roles of individual NPs on healing tissues. An animal model for the local delivery of NPs has been developed and is presented in this Example. Briefly, NP infused mini-osmotic pumps were implanted subcutaneously into the back of rats. A small catheter running from the pump to an intramuscular space above the MCL was secured to the rat.
To test whether autonomic NPs improve healing in SS-ruptured MCLs, three female Wistar rats (193 g to 204 g) were given VIP locally to the MCL. Vasoactive intestinal peptide (75 pg/μl) was infused into a mini-osmotic pump and was delivered to a ruptured MCL of a surgical sympathectomy (SS) rat (see surgical procedure above). Within minutes of surgical intervention, all rats recovered and had normal movement and behavior (grooming, feeding, etc.). […] The results are presented graphically in FIG. 6.
Animal Model and Surgery: Thirty-seven female Wistar rats (199-298 g) were divided into five groups. […] Rats that were designated to receive SP or CGRP underwent bilateral femoral nerve transection (see previous examples). Rats that were designated to receive NPY, VIP, or a combination of NPY and VIP underwent bilateral surgical sympathectomy. Following surgical nerve transection, each rat also underwent bilateral MCL rupture. Neuropeptides were then delivered ruptured MCLs unilaterally. Neuropeptide infused mini-osmotic pumps (Alzet Corp.) were implanted subcutaneously into the back of each rat. A small catheter running from the pump was run to an intramuscular space above the MCL and was secured. To ensure that neuropeptides are delivered directly to the MCL, rhodamine labeled SP was delivered via a catheter to the MCL (n=2 rats).
Within minutes of surgical intervention, all rats recovered and had normal movement and behavior (grooming, feeding, etc.). To test whether autonomic NPs improve healing in SS ruptured MCLs, seven rats were given VIP, seven rats were given NPY, and seven rats were given a combination of VIP and NPY. […]
Mechanical Testing: Mechanical testing was performed as described in the preceding examples. Briefly, animal hind limbs from all groups (n=4 for all groups) were disarticulated at the hip joint and stored at −80° C. until testing. On the day of testing, MCLs including intact femoral and tibial bone sections were excised for ex vivo testing. Ligament thickness and width was measured optically, and MCL area was estimated with elliptical geometry. For strain measurements, optical markers were placed onto the ligament tissue near the insertion sites. […]

Setting [1] is: Example 3: VIP 75 pg/μl via mini-osmotic pump to ruptured MCL of SS rat.
Setting [2] is: Example 6: SS rats, bilateral MCL rupture, mini-osmotic pump (NPY 65 pg/100 μl; VIP 100 pg/100 μl; or both).

As to vasoactive intestinal peptide [VIP], the failure force stood at 44.23 N under setting [1] and 44.2±3.1 N under setting [2]. Moreover, the ultimate stress is on record as 29.63 MPa under setting [1] and 29.6±10.0 MPa under setting [2]. In addition, the “histomorphology (H&E) of healing MCL” value (SS rats, VIP or NPY, two weeks) is on record as “more aligned”. Moreover, the “mechanical strength of healing MCL (in words)” value was “greater than the strength of uninjured MCLs; also recorded: completely reversed the functional deficits” (SS rats) and “greater strength than intact, normally innervated MCLs” (SS rats, listed as Vasoactive intestinal peptide).
